Results on two molecules are retold here after paper PMC5906745, “Silencing of Chemosensory Protein Gene NlugCSP8 by RNAi Induces Declining Behavioral Responses of Nilaparvata lugens” (Frontiers in Physiology, 2018).

pIC50, pKi: −log10 of the molar value. Entries after “also recorded” stand apart in the source; their conditions may differ. Where two headings read alike, the source gives them in different places.

The subject of one test is NlugCSP7. The arrangement: method as in Yang et al., 2014. Conditions: ref Yang et al., 2014; cited from earlier work.
For another test, the target named is NlugCSP8 (Nilaparvata lugens, UniProt B7TVH4). Kind of test: Fluorescence competitive ligand binding assay with 1-NPN probe. The method, then:
The recombinant pET-30a/CSP8 expression plasmid was transformed into Escherichia coli BL21 (DE3) competent cells. After DNA sequencing, a single positive clone was grown in 10 mL Luria-Bertani (LB) medium containing kanamycin (50 μg/mL) with shaking overnight at 220 rpm and 37°C. The culture was diluted to 2 L LB medium (supplemented with 50 μg/mL kanamycin) and grown at 37°C with shaking at 220 rpm until the culture reached the optical density value of ~0.6–0.7 at 600 nm. The recombinant protein expression was induced by the addition of 2 mM IPTG (Isopropyl β-D-1-thiogalactopyranoside), followed by culturing for 4 h at 37°C. The bacterial cells were harvested by centrifugation (10,000 rpm, 10 min) and sonicated. The expressed protein presented in the supernatant as a soluble form. Then, NlugCSP8 purification was performed using a Ni-ion affinity chromatography column (GE Healthcare, Uppsala, Sweden). His-tag was removed from the recombinant protein with the addition of recombinant bovine enterokinase (EK) in the eluted fractions of protein, followed by 16 h incubation at 25°C. After running the digested protein back through the Ni-ion affinity chromatography column, the tag-free protein was obtained in the flow through fraction. Protein expression and purification steps were assessed by 15% SDS-PAGE (sodium dodecyl sulfate-polyacrylamide gel electrophoresis). Finally, purified protein was dialyzed in Tris buffer (pH 5.0) and (pH 7.4). The concentration of purified protein was determined prior to perform ligand-binding specificities of NlugCSP8 with 25 selected ligands at pH 5.0 and pH 7.4.
Fluorescence-based ligand binding assays were performed based on the method described by Sun X. et al. ([2016]). According to previous studies about the rice-specific volatiles (Fujii et al., [2010]; He et al., [2011]; Yang et al., [2014]; Zhang et al., [2014]), 25 potential ligands were selected for the fluorescence binding assays (Table 1). All the ligands used in this study were purchased from Sigma-Aldrich (St. Louis, MO, USA) and stored according to manufacturer instructions. The ligand binding affinity for various ligands was determined by using the 1-NPN (N-phenyl-1-naphthylamine) as a fluorescent probe. RF-5301PC fluorimeter (Shimadzu, Kyoto, Japan) was used for fluorescence binding assay at 25°C with 10 nm slit width and 1 cm light path quartz cuvette for emission and excitation. The 1-NPN/NlugCSP8 mixture was excited using an excitation wavelength of 337 nm, and the fluorescence intensity was recorded between 350 and 600 nm following an established protocol (Ban et al., [2002]). The 1-NPN and all the potential ligands were prepared in spectrophotometric-grade methanol. The binding constant for 1-NPN was measured by adding aliquots of 1 mM 1-NPN into a 2 μM solution of protein in 30 mM Tris-HCL at room temperature. […] For each test, fluorescence measurement was conducted after the reaction was incubated for 2 min at room temperature (Liu et al., [2015]). Three independent measurements were used to obtain the binding data. 1-NPN/NlugCSP8 dissociation constants (Kd) were calculated from Scatchard plots of the binding data using the Prism 5 software (GraphPad, La Jolla, CA, USA). The curves were linearized using the Scatchard plot program (Campanacci et al., [2001]). The dissociation constants of the competitors were determined by using the corresponding IC50-values according to the equation Ki = [IC50]/ (1+[1-NPN]/K1−NPN), where IC50 represents the concentration of ligand which decreases the fluorescence intensity of [1-NPN], [1-NPN] is the free concentration of 1-NPN and K1−NPN is the dissociation constant of the NlugCSP8/1-NPN complex (Ban et al., [2003]; Tian and Zhang, [2016]). For the reader's convenience, data were recalculated as 1/ki × 1,000, for which a larger value designates a stronger ligand binding affinity.

In test [1] the test system is BPH. The arrangement: method as in Obata et al., 1983. Conditions: volatile isolated from rice plants; ref Obata et al., 1983; cited from earlier work.
The subject of test [2] is Nilaparvata lugens. As to the kind of experiment: H-tube olfactometer assay after RNAi (dsRNA-injected BPH). Format: in vivo. The conditions noted are these: 10 μl/mL (nerolidol), 100 μl/mL (hexanal); compared with controls. The method, then: BPH behavior responses to different ligands were tested in an H-tube olfactometer similar to which previously used by Yi et al. ([2018]) in our laboratory. The H-tube olfactometer mainly consists of two glass tubes (arms) with gauze at its top end. These two glass tubes were connected by another tube (5 cm in diameter, 20 cm long with a hole of 1 cm in the middle for releasing BPH). Twenty macropterous (10 from each sex) BPH adults were introduced into the H-tube and the number of BPH was counted at 30 min after their introduction. Liquid paraffin was used as in control arm. Rubber septa were absorbed in the liquid paraffin and solutions of the odor molecules to be tested (liquid paraffin+ different concentration of tested volatile) and placed at room temperature. After 24 h, one rubber septa from each control and tested volatile was put in each glass arm. After one replication, rubber septa were changed and three treatments (1, 10, and 100 μl/mL) of tested volatiles against macropterous adults were tested in eight replications. […] In order to evaluate the best RNAi effect, mRNA levels of NlugCSP8-dsRNA injected insects were determined and compared with the GFP-dsRNA-injected and non-injected insects, prior to H-tube olfactometer bioassay. […]

Test [3] deals with Nilaparvata lugens. As to the kind of experiment: H-tube olfactometer behavioral assay. The format is in vivo. The conditions noted are these: macropterous adults, vs liquid paraffin. As for the experimental part: BPH behavior responses to different ligands were tested in an H-tube olfactometer similar to which previously used by Yi et al. ([2018]) in our laboratory. The H-tube olfactometer mainly consists of two glass tubes (arms) with gauze at its top end. These two glass tubes were connected by another tube (5 cm in diameter, 20 cm long with a hole of 1 cm in the middle for releasing BPH). Twenty macropterous (10 from each sex) BPH adults were introduced into the H-tube and the number of BPH was counted at 30 min after their introduction. Liquid paraffin was used as in control arm. Rubber septa were absorbed in the liquid paraffin and solutions of the odor molecules to be tested (liquid paraffin+ different concentration of tested volatile) and placed at room temperature. After 24 h, one rubber septa from each control and tested volatile was put in each glass arm. After one replication, rubber septa were changed and three treatments (1, 10, and 100 μl/mL) of tested volatiles against macropterous adults were tested in eight replications. After four replications, the H-tube olfactometer was washed with 75% alcohol and the liquid paraffin rubber septa were placed in another arm to complete the other four replications. The impact of NlugCSP8-dsRNA on the preference of N. lugens was also tested by H-tube olfactometer assays. Corresponding control experiments without dsRNA injection were performed to investigate whether the preference of N. lugens was affected by volatile concentration change. Three treatments of BPH (NlugCSP8-dsRNA injected, GFP-dsRNA injected, and without injection) were tested in four replications. As in case of dsRNA injected insects, the concentration of volatiles that have highly significant attractive results on non-injected insects used for dsCSP8 and dsGFP injected insects. In order to evaluate the best RNAi effect, mRNA levels of NlugCSP8-dsRNA injected insects were determined and compared with the GFP-dsRNA-injected and non-injected insects, prior to H-tube olfactometer bioassay. Based on the findings of previous step, we re-inject the BPH and the individuals with the best post-injection RNAi effect after 7-days, were used in the H-tube olfactometer bioassay. Bioassays were performed under controlled conditions at 26 ± 2°C and 75 ± 5% relative humidity.

Test [4] relates to BPH. More on the design: method as in Hernandez et al., 1989; Youn, 2002. Conditions: BPH and some other Hemiptera; ref Hernandez et al., 1989; Youn, 2002; cited from earlier work.

Chain of NlugCSP8 (B7TVH4 entry or part of it): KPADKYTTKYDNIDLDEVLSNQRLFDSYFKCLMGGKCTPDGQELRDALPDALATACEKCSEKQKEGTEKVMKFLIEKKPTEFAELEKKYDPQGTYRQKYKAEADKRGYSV

Turning to `CCCCCCCCCCCC(C)=O` [2-Tridecanone], the “binding affinity with NlugCSP7” value in the test on NlugCSP7 is reported as “relatively weak binding affinity”. Further, the pKi on NlugCSP8 (pH 5.0, calculated from IC50, read-out: Ki) was 4.98; on NlugCSP8 (pH 7.4, calculated from IC50, read-out: Ki), 4.90. Also, the pIC50 at NlugCSP8 (pH 5.0, read-out: IC50) is 4.92; on NlugCSP8 (pH 7.4, read-out: IC50), 4.82. In addition, the “attraction of BPH” value in the test on BPH [1] was “able to attract BPH”.
For the molecule `CCCCCC=O` [Hexanal], the “binding affinity with NlugCSP7” value in the test with NlugCSP7 is listed as “weak affinities”. Further, the pIC50 on NlugCSP8 (IC50, pH 5.0) was 4.96; on NlugCSP8 (IC50, pH 7.4), 4.76. Further, the pKi at NlugCSP8 (Ki, pH 5.0, calculated from IC50) is 5.02; at NlugCSP8 (Ki, pH 7.4, calculated from IC50), 4.84. For the same molecule, in the test on Nilaparvata lugens [2], the “behavior response of dsCSP8-injected (RNAi) BPH to attractant” value is listed as “reduced significantly; also recorded: significantly inhibited”. Besides, the “behavioral response of BPH” value is listed as “repellency” in the test with Nilaparvata lugens [3] (1 μl/mL), “attraction became weakened” in the test with Nilaparvata lugens [3] (10 μl/mL) and “strongly behaved as attractant” with Nilaparvata lugens [3] (100 μl/mL). Also, in the test with BPH [4], the Electroantennogram response result is “high Electroantennogram response”.
